# Laboratory results as given in patent US4746349A, “Method and compositions for suppressing the nitrification of ammonium in plant growth medium” (American Cyanamid Company, priority 1986, dated 1988).
# Where a name gives a salt, the structure may show the parent alone.
# Experiments:
# Nitrosomonas spp. = assay: Nitrification of ammonium in soil incubated at 25° C. (ammonium recovery, nitrate accumulation); conditions: soil 25° C.; for Concentration of nitrate nitrogen / Recovery of Ammonium Nitrogen: 200 ppm N
# Procedure: In these evaluations, one hundred grams (100 g) of oven dry, silt loam field soil with low residual nitrogen is added to a 6×12 cm screw-capped glass jar for each sampling date to provide an optimum environment for nitrification.
# Two replicates of each treatment-sampling date are established. The soil is adjusted to 50% water saturation with an aqueous solution of ammonium sulfate at 200 ppm N and the chemical to be tested as a nitrification inhibitor at rates of from 0.10 to 0.50 ppm.
# Incubation is at either 25° C. or 38° C. for 0, 1, 2, 4, 7, 9, 12, 16 or 20 weeks. Inorganic N is extracted by adding 2M KCl (10:1 v/w) and shaking for one hour, allowing settling for fifteen minutes. A 10 ml aliquot from the supernatant is assayed for ammonium, nitrite and nitrate by standard steam distillation methods (AOAC, pp. 653-655). Nitrapyrin (0.5 ppm) is used as a nitrification inhibitor for comparison. Benzyl alcohol, acetone, and a non-N amended soil are run as controls and as a check on mineralization.
# Nitrification: Ammonium recovery and nitrate accumulation are indicative of nitrification, and data obtained with test compounds are reported in Tables I and II.
# Nitrobacter spp. = assay: Nitrite nitrogen in ammonium amended soil incubated at 25° C.; conditions: soil 25° C., 200 ppm N
# Procedure: Determination of nitrite nitrogen and nitrate nitrogen in soil prepared in Example 1 above, which is amended with 200 ppm of nitrogen as aqueous ammonium sulfate, […], is determined using the nitrite and nitrate analysis of the American Organization of Analytical Chemists (AOAC pp. 653-655).
structure (smiles),measurement,setting,value
CC(C)=O [Acetone],"Effect on nitrification, in words",Nitrosomonas spp.; 5%,initial rate of nitrification is slowed slightly
same,Concentration of nitrate nitrogen,"Nitrosomonas spp.; 5%, week 0",19 PPM
same,Recovery of Ammonium Nitrogen,"Nitrosomonas spp.; 5%, week 0",194 PPM
same,Concentration of nitrate nitrogen,"Nitrosomonas spp.; 5%, week 1",7 PPM
same,Recovery of Ammonium Nitrogen,"Nitrosomonas spp.; 5%, week 1",138 PPM
same,Concentration of nitrate nitrogen,"Nitrosomonas spp.; 5%, week 2",0 PPM
same,Recovery of Ammonium Nitrogen,"Nitrosomonas spp.; 5%, week 2",122 PPM
same,Concentration of nitrate nitrogen,"Nitrosomonas spp.; 5%, week 4",36 PPM
same,Recovery of Ammonium Nitrogen,"Nitrosomonas spp.; 5%, week 4",127 PPM
same,Concentration of nitrate nitrogen,"Nitrosomonas spp.; 5%, week 7",75 PPM
same,Recovery of Ammonium Nitrogen,"Nitrosomonas spp.; 5%, week 7",8 PPM
same,Concentration of nitrate nitrogen,"Nitrosomonas spp.; 5%, week 9",100 PPM
same,Recovery of Ammonium Nitrogen,"Nitrosomonas spp.; 5%, week 9",1 PPM
same,Concentration of nitrate nitrogen,"Nitrosomonas spp.; 5%, week 12",155 PPM
same,Recovery of Ammonium Nitrogen,"Nitrosomonas spp.; 5%, week 12",1 PPM
same,Concentration of nitrate nitrogen,"Nitrosomonas spp.; 5%, week 16",165 PPM
same,Recovery of Ammonium Nitrogen,"Nitrosomonas spp.; 5%, week 16",1 PPM
same,Concentration of nitrite nitrogen,"Nitrobacter spp.; 5%, week 0",6 ppm
same,Concentration of nitrite nitrogen,"Nitrobacter spp.; 5%, week 1",4 ppm
same,Concentration of nitrite nitrogen,"Nitrobacter spp.; 5%, week 2",-1 ppm
same,Concentration of nitrite nitrogen,"Nitrobacter spp.; 5%, week 4",9 ppm
same,Concentration of nitrite nitrogen,"Nitrobacter spp.; 5%, week 7",56 ppm
same,Concentration of nitrite nitrogen,"Nitrobacter spp.; 5%, week 9",5 ppm
same,Concentration of nitrite nitrogen,"Nitrobacter spp.; 5%, week 12",20 ppm
same,Concentration of nitrite nitrogen,"Nitrobacter spp.; 5%, week 16",10 ppm
same,Concentration of nitrite nitrogen,"Nitrobacter spp.; 5%, week 20",11 ppm
"CC[C@@H](C(=O)[C@@H](C)[C@@H](O)[C@H](C)CCc1ccc(C)c(O)c1C(=O)O)[C@H]1O[C@](CC)([C@H]2CC[C@](O)(CC)[C@H](C)O2)C[C@@H]1C [Lasalocid sodium salt, Lasalocid]",Concentration of nitrate nitrogen,"Nitrosomonas spp.; 0.10 ppm, week 0",19 PPM
same,Recovery of Ammonium Nitrogen,"Nitrosomonas spp.; 0.10 ppm, week 0",194 PPM
same,Concentration of nitrate nitrogen,"Nitrosomonas spp.; 0.10 ppm, week 1",21 PPM
same,Recovery of Ammonium Nitrogen,"Nitrosomonas spp.; 0.10 ppm, week 1",177 PPM
same,Concentration of nitrate nitrogen,"Nitrosomonas spp.; 0.10 ppm, week 2",41 PPM
same,Recovery of Ammonium Nitrogen,"Nitrosomonas spp.; 0.10 ppm, week 2",143 PPM
same,Concentration of nitrate nitrogen,"Nitrosomonas spp.; 0.10 ppm, week 4",90 PPM
same,Recovery of Ammonium Nitrogen,"Nitrosomonas spp.; 0.10 ppm, week 4",109 PPM
same,Concentration of nitrate nitrogen,"Nitrosomonas spp.; 0.10 ppm, week 7",197 PPM
same,Recovery of Ammonium Nitrogen,"Nitrosomonas spp.; 0.10 ppm, week 7",7 PPM
same,Concentration of nitrate nitrogen,"Nitrosomonas spp.; 0.10 ppm, week 9",219 PPM
same,Recovery of Ammonium Nitrogen,"Nitrosomonas spp.; 0.10 ppm, week 9",0 PPM
same,Concentration of nitrate nitrogen,"Nitrosomonas spp.; 0.10 ppm, week 12",220 PPM
same,Recovery of Ammonium Nitrogen,"Nitrosomonas spp.; 0.10 ppm, week 12",8 PPM
same,Concentration of nitrate nitrogen,"Nitrosomonas spp.; 0.10 ppm, week 16",223 PPM
same,Recovery of Ammonium Nitrogen,"Nitrosomonas spp.; 0.10 ppm, week 16",3 PPM
same,"Specific inhibition of nitrification through activity against Nitrosomonas spp., in words",Nitrosomonas spp.; 0.1 to 0.5 ppm,appear to specifically inhibit nitrification through activity against Nitrosomonas spp.
same,Concentration of nitrate nitrogen,"Nitrosomonas spp.; 0.25 ppm, week 0",18 PPM
same,Recovery of Ammonium Nitrogen,"Nitrosomonas spp.; 0.25 ppm, week 0",194 PPM
same,Concentration of nitrate nitrogen,"Nitrosomonas spp.; 0.25 ppm, week 1",21 PPM
same,Recovery of Ammonium Nitrogen,"Nitrosomonas spp.; 0.25 ppm, week 1",184 PPM
same,Concentration of nitrate nitrogen,"Nitrosomonas spp.; 0.25 ppm, week 2",18 PPM
same,Recovery of Ammonium Nitrogen,"Nitrosomonas spp.; 0.25 ppm, week 2",186 PPM
same,Concentration of nitrate nitrogen,"Nitrosomonas spp.; 0.25 ppm, week 4",28 PPM
same,Recovery of Ammonium Nitrogen,"Nitrosomonas spp.; 0.25 ppm, week 4",197 PPM
same,Concentration of nitrate nitrogen,"Nitrosomonas spp.; 0.25 ppm, week 7",26 PPM
same,Recovery of Ammonium Nitrogen,"Nitrosomonas spp.; 0.25 ppm, week 7",194 PPM
same,Concentration of nitrate nitrogen,"Nitrosomonas spp.; 0.25 ppm, week 9",68 PPM
same,Recovery of Ammonium Nitrogen,"Nitrosomonas spp.; 0.25 ppm, week 9",147 PPM
same,Concentration of nitrate nitrogen,"Nitrosomonas spp.; 0.25 ppm, week 12",46 PPM
same,Recovery of Ammonium Nitrogen,"Nitrosomonas spp.; 0.25 ppm, week 12",180 PPM
same,Concentration of nitrate nitrogen,"Nitrosomonas spp.; 0.25 ppm, week 16",158 PPM
same,Recovery of Ammonium Nitrogen,"Nitrosomonas spp.; 0.25 ppm, week 16",78 PPM
same,Concentration of nitrate nitrogen,"Nitrosomonas spp.; 0.25 ppm, week 20",154 PPM
same,Recovery of Ammonium Nitrogen,"Nitrosomonas spp.; 0.25 ppm, week 20",44 PPM
same,Concentration of nitrate nitrogen,"Nitrosomonas spp.; 0.50 ppm, week 0",18 PPM
same,Recovery of Ammonium Nitrogen,"Nitrosomonas spp.; 0.50 ppm, week 0",195 PPM
same,Concentration of nitrate nitrogen,"Nitrosomonas spp.; 0.50 ppm, week 1",18 PPM
same,Recovery of Ammonium Nitrogen,"Nitrosomonas spp.; 0.50 ppm, week 1",169 PPM
same,Concentration of nitrate nitrogen,"Nitrosomonas spp.; 0.50 ppm, week 2",14 PPM
same,Recovery of Ammonium Nitrogen,"Nitrosomonas spp.; 0.50 ppm, week 2",168 PPM
same,Concentration of nitrate nitrogen,"Nitrosomonas spp.; 0.50 ppm, week 4",18 PPM
same,Recovery of Ammonium Nitrogen,"Nitrosomonas spp.; 0.50 ppm, week 4",173 PPM
same,Concentration of nitrate nitrogen,"Nitrosomonas spp.; 0.50 ppm, week 7",18 PPM
same,Recovery of Ammonium Nitrogen,"Nitrosomonas spp.; 0.50 ppm, week 7",199 PPM
same,Concentration of nitrate nitrogen,"Nitrosomonas spp.; 0.50 ppm, week 9",17 PPM
same,Recovery of Ammonium Nitrogen,"Nitrosomonas spp.; 0.50 ppm, week 9",202 PPM
same,Concentration of nitrate nitrogen,"Nitrosomonas spp.; 0.50 ppm, week 12",20 PPM
same,Recovery of Ammonium Nitrogen,"Nitrosomonas spp.; 0.50 ppm, week 12",215 PPM
same,Concentration of nitrate nitrogen,"Nitrosomonas spp.; 0.50 ppm, week 16",52 PPM
same,Recovery of Ammonium Nitrogen,"Nitrosomonas spp.; 0.50 ppm, week 16",175 PPM
same,Concentration of nitrate nitrogen,"Nitrosomonas spp.; 0.50 ppm, week 20",26 PPM
same,Recovery of Ammonium Nitrogen,"Nitrosomonas spp.; 0.50 ppm, week 20",135 PPM
same,Concentration of nitrite nitrogen,"Nitrobacter spp.; 0.10 ppm, week 0",8 ppm
same,Concentration of nitrite nitrogen,"Nitrobacter spp.; 0.10 ppm, week 1",2 ppm
same,Concentration of nitrite nitrogen,"Nitrobacter spp.; 0.10 ppm, week 2",1 ppm
same,Concentration of nitrite nitrogen,"Nitrobacter spp.; 0.10 ppm, week 4",15 ppm
same,Concentration of nitrite nitrogen,"Nitrobacter spp.; 0.10 ppm, week 7",12 ppm
same,Concentration of nitrite nitrogen,"Nitrobacter spp.; 0.10 ppm, week 9",10 ppm
same,Concentration of nitrite nitrogen,"Nitrobacter spp.; 0.10 ppm, week 12",5 ppm
same,Concentration of nitrite nitrogen,"Nitrobacter spp.; 0.10 ppm, week 16",6 ppm
same,Concentration of nitrite nitrogen,"Nitrobacter spp.; 0.10 ppm, week 20",11 ppm
same,Concentration of nitrite nitrogen,"Nitrobacter spp.; 0.25 ppm, week 0",5 ppm
same,Concentration of nitrite nitrogen,"Nitrobacter spp.; 0.25 ppm, week 1",0 ppm
same,Concentration of nitrite nitrogen,"Nitrobacter spp.; 0.25 ppm, week 2",3 ppm
same,Concentration of nitrite nitrogen,"Nitrobacter spp.; 0.25 ppm, week 4",2 ppm
same,Concentration of nitrite nitrogen,"Nitrobacter spp.; 0.25 ppm, week 7",0 ppm
same,Concentration of nitrite nitrogen,"Nitrobacter spp.; 0.25 ppm, week 9",3 ppm
same,Concentration of nitrite nitrogen,"Nitrobacter spp.; 0.25 ppm, week 12",8 ppm
same,Concentration of nitrite nitrogen,"Nitrobacter spp.; 0.25 ppm, week 16",-1 ppm
same,Concentration of nitrite nitrogen,"Nitrobacter spp.; 0.25 ppm, week 20",40 ppm
same,Concentration of nitrite nitrogen,"Nitrobacter spp.; 0.50 ppm, week 0",7 ppm
same,Concentration of nitrite nitrogen,"Nitrobacter spp.; 0.50 ppm, week 1",2 ppm
same,Concentration of nitrite nitrogen,"Nitrobacter spp.; 0.50 ppm, week 2",6 ppm
same,Concentration of nitrite nitrogen,"Nitrobacter spp.; 0.50 ppm, week 4",2 ppm
same,Concentration of nitrite nitrogen,"Nitrobacter spp.; 0.50 ppm, week 7",-4 ppm
same,Concentration of nitrite nitrogen,"Nitrobacter spp.; 0.50 ppm, week 9",2 ppm
same,Concentration of nitrite nitrogen,"Nitrobacter spp.; 0.50 ppm, week 12",-11 ppm
same,Concentration of nitrite nitrogen,"Nitrobacter spp.; 0.50 ppm, week 16",7 ppm
same,Concentration of nitrite nitrogen,"Nitrobacter spp.; 0.50 ppm, week 20",7 ppm
